# Test results reported in US20100040566A1, “EMULSION” (Riemann Trading ApS, priority 2006, published 2010).
# Experiment: Determination of photo stability (Xenon arc lamp irradiation, HPLC of UV-filters)
# Type: physicochemical
# Conditions: for photo stability (in words): 3 MED/2 h irradiation; for Content of UV-Filter Substances, After irradiation [3MED/2 h], Found [%]: Xenon arc lamp, 3 MED after two hours, HPLC; for Content of UV-Filter Substances, Before irradiation, Found [%]: in sample prepared as in Example 1, HPLC; for Content of UV-Filter Substances, After irradiation [3MED/2 h], [%] rel.: relative to content before irradiation
# Source text: The test sample are weighed and distributed evenly and homogeneously with a brush onto the marked area of a glass plate.
# For the Irradiation we use a Xenon arc lamp because the continuous spectrum in the UV-region is near—identical to that of—natural light. The lamp is turned on approximately one hour before Irradiation.
# The glass plate Is positioned under the lamp so that the square with the test sample is maximally illuminated.
# The distance (lamp-glass plate) is acquired with the aid of a calibrated hand radiometer (PMA 2100) with UV-B detector. The radiant Intensity of the lamp on the sample is set up so that an Irradiation dose of 3 MED (Minimal Erythemal Dose) is given after two hours.
# In order to ascertain to which extent each of the Individual UV-filters in the tested formulations has been photometrically degraded, they are analytically quantified before and after irradiation.
# The instrumental-analytical method used is HPLC
# Sample is prepared as described in Example 1
photo stability (in words),"Content of UV-Filter Substances, After irradiation [3MED/2 h], Found [%]","Content of UV-Filter Substances, Before irradiation, Found [%]","Content of UV-Filter Substances, After irradiation [3MED/2 h], [%] rel. [%]",Compound
very good value of photo stability,1.21,1.29,93.8,CCCCCCOC(=O)c1ccccc1C(=O)c1ccc(N(CC)CC)cc1O [Diethylamino Hydroxybenzoyl Hexyl Benzoate]
very good value of photo stability,9.35,9.98,93.7,CCCCC(CC)COC(=O)C(C#N)=C(c1ccccc1)c1ccccc1 (stereo not drawn) [Octocrylene]
relatively strong degradation,–,–,–,CCCCC(CC)COC(=O)C=Cc1ccc(OC)cc1 (stereo not drawn) [Ethylhexyl Methoxycinnamate]
